# Data taken from patent publication US20070066616A1, “Inhibitors for extracellular signal-regulated kinase docking domains and uses therefor” (priority 2005, published 2007).
# “Also recorded” adds a separate entry of the source.
# Legend:
# [1] = tested on: HeLa, A549, or SUM-159 cells; assay: Colony formation assay, screen of test compounds (FIG. 7A); type: cell-based, human; design: dose or concentration left out as unconfirmed; settings: FIG. 7A screen as printed
# Method: HeLa, A549, or SUM-159 cells were plated at a low density of ˜200-400 cells per well in the absence or presence of putative ERK docking domain inhibitors. Cell colonies were stained with crystal violet and counted after 6-10 days. In FIG. 7A cells were grown on 10 cm plates in the absence (−) or presence of 100 mM of compound 67, 36, 68, 81, or 76. Colony formation dose response in the presence of the indicated concentrations of compound 76 or 81 for Hela cells […] (FIG. 7B), A549 cells (50 mM) (FIG. 7C), or SUM-159 cells (50 mM) (FIG. 7D).
# (§1) Trypsinized cells were plated on 12 or 24 well plates at low densities (200-400 cells per well) in the absence (DMSO only) or presence of test compounds. In additional experiments, cells were first allowed to adhere to the culture dishes for 16 hours prior to treatment with test compounds. The treated cells received a single dose of the test compounds at the beginning of the experiments. The control and treated cells were grown for 8-14 days to allow the formation of colonies. Cells then were fixed for 10 minutes in 4% paraformaldehyde and stained with 0.2% crystal violet (in 20% methanol) for 1-2 minutes. Following several washes with distilled water, the colonies (containing at least 40 cells) were counted. Each individual experiment was repeated on at least 3 separate occasions.
# The effects of the active compounds on cell proliferation and survival were tested using a colony formation assay.
# [2] = tested on: ERK specific phosphorylation of Rsk-1 and/or Elk-1; assay: ERK substrate phosphorylation assays (Rsk-1 and/or Elk-1); type: cell-based, human
# Method: (§2) Prior to harvesting, cells were pre-incubated with the test compounds for 15-20 minutes and then stimulated with EGF or anisomycin to activate the ERK or p38 MAP kinase pathways, respectively. […] The lysates then were diluted with an equal volume of 2X SDS-sample buffer and the proteins were separated on SDS-PAGE for immunoblot analysis. Immunoblot analysis was done as previously described (41-43).
# [3] = tested on: ERK-mediated phosphorylation of Rsk-1 on Thr573; assay: ERK-mediated Rsk-1 phosphorylation (Thr573), immunoblot and densitometry in EGF-stimulated HeLa cells; type: cell-based, human; settings: immunoblot
# Method: Prior to harvesting, cells were pre-incubated with the test compounds for 15-20 minutes and then stimulated with EGF or anisomycin to activate the ERK or p38 MAP kinase pathways, respectively. Control and treated cells were washed twice with cold phosphate buffered saline (PBS, pH 7.2; Invitrogen) and proteins were collected following cell lysis with 300 μl of cold tissue lysis buffer (20 mM Tris, pH 7.4, 137 mM NaCl, 2 mM EDTA, 1% Triton X-100, 0.1% SDS, 25 mM β-glycerophosphate, 2 mM sodium pyrophosphate, 10% glycerol, 1 mM sodium orthovanadate, 1 mM phenylmethylsulfonyl fluoride (PMSF), 1 mM benzamidine), allowed to incubate on ice for about 10 minutes and then centrifuged at 20,000 (X g) to clarify the lysates of insoluble material. The lysates then were diluted with an equal volume of 2X SDS-sample buffer and the proteins were separated on SDS-PAGE for immunoblot analysis. Immunoblot analysis was done as previously described (41-43).
# All compounds were subjected to assays of ERK specific phosphorylation of Rsk-1 and/or Elk-1 as examined by immunoblot analysis using phosphorylation specific antibodies. In FIG. 5A HeLa cells were cultured in 24 well plates and pretreated for 20-30 minutes with […] of the selected test compounds. The cells were stimulated with epidermal growth factor (EGF, 50 ng/ml) for 5 minutes to activate the ERK pathway. Cell lysates were collected and immunoblotted for ERK-mediated phosphorylation of Rsk-1 on Thr573. As shown, EGF treatment alone caused a robust increase in Thr573 phosphorylation on Rsk-1 in the absence of test compounds. The presence of test compounds had inhibitory effects on ERK-mediated Rsk-1 phosphorylation.
# Compounds 86-98 were first tested for inhibition of ERK mediated phosphorylation of the transcription factor Elk-1, which is an important regulator of cell proliferation. Cells were treated with EGF to activate the ERK pathway and phosphorylation of Elk-1 on the ERK site at S383 was detected by immunoblot analysis (FIG. 5C). […] The effects of the test compounds were also tested with Rsk-1, another ERK substrate involved in regulating cell proliferation.
# ERK2 = molecular target: T1, ERK2 (Mus musculus, UniProt P63085); assay: Fluorescence titration (quenching of intrinsic ERK2 fluorescence); type: binding; settings: fluorescence titration
# T1 construct: (His)x6; made in house; host or cells: bacteria
# Method: Experiments measure the changes in the intrinsic ERK2 fluorescence due to the presence of aromatic amino acids, with the indole group of tryptophan being the major fluorophore with absorption and emission maxima around 280 and 340 nanometers (nm), respectively. Fluorescence spectra were recorded with a Luminescence Spectrometer LS50 (Perkin Elmer, Boston, Mass.). For all experiments, ERK2 protein was diluted into 20 mM Tris-HCl, pH 7.5. Titrations were performed by increasing the test compound concentration while maintaining the ERK2 protein concentration at 3 μM.
# The excitation wavelength was 295 nm and fluorescence was monitored from 300 to 500 nm. All reported fluorescence intensities are relative values and are not corrected for wavelength variations in detector response. Dissociation constants, KD, were determined using reciprocal plots, 1/ν vs 1/[I], where ν represents the percent occupied sites calculated assuming fluorescence quenching to be directly proportion to the percentage of occupied binding sites, [I] represents the concentration of the inhibitor compound and the slope of the curve equals the KD (48-49).
# ERK2 contains three tryptophans, which have intrinsic fluorescence. Fluorescence quenching of ERK2 by the test compounds is indicative of binding interactions and potential protein conformational changes.
# [4] = tested on: SUM-159 estrogen-receptor negative breast cancer cell line; assay: Cell proliferation, SUM-159 cells; type: cell-based, human
# Method: (§3) HeLa, A549, or SUM-159 cells were plated at a low density of ˜200-400 cells per well in the absence or presence of putative ERK docking domain inhibitors. Cell colonies were stained with crystal violet and counted after 6-10 days. In FIG. 7A cells were grown on 10 cm plates in the absence (−) or presence of 100 mM of compound 67, 36, 68, 81, or 76. Colony formation dose response in the presence of the indicated concentrations of compound 76 or 81 for Hela cells (100 mM) (FIG. 7B), A549 cells (50 mM) (FIG. 7C), or SUM-159 cells (50 mM) (FIG. 7D).
# as §1
# [5] = tested on: A549 lung carcinoma cells; assay: Colony formation assay, A549 cells; type: cell-based, human; settings: colony formation dose response (FIG. 7C)
# Method: as §3, §1
# [6] = tested on: HT1080 fibrosarcoma cells; assay: Cell proliferation, HT1080 cells; type: cell-based, human; settings: data not shown
# Method: as §1
# HeLa cells = assay: Colony formation assay, HeLa cells; type: cell-based, human; settings: for IC50: HeLa cells, single dose 0-100 μM, 8-10 days, at least 3 experiments
# Method: HeLa, A549, or SUM-159 cells were plated at a low density of ˜200-400 cells per well in the absence or presence of putative ERK docking domain inhibitors. Cell colonies were stained with crystal violet and counted after 6-10 days.
# as §1
# HeLa cells were plated at low density and incubated with a single dose (0-100 μM) of the test compounds being tested. After 8-10 days, the resulting cell colonies were stained, photographed, and counted to estimate the IC50. The data is derived from at least 3 independent experiments.
# [7] = tested on: ERK-mediated phosphorylation of Elk-1 on S383; assay: ERK-mediated Elk-1 phosphorylation (Ser383), immunoblot in EGF-stimulated HeLa cells; type: cell-based, human
# Method: as §2
# Cells were treated with EGF to activate the ERK pathway and phosphorylation of Elk-1 on the ERK site at S383 was detected by immunoblot analysis (FIG. 5C). […] The effects of the test compounds were also tested with Rsk-1, another ERK substrate involved in regulating cell proliferation.
# T1 sequence (P63085 whole entry): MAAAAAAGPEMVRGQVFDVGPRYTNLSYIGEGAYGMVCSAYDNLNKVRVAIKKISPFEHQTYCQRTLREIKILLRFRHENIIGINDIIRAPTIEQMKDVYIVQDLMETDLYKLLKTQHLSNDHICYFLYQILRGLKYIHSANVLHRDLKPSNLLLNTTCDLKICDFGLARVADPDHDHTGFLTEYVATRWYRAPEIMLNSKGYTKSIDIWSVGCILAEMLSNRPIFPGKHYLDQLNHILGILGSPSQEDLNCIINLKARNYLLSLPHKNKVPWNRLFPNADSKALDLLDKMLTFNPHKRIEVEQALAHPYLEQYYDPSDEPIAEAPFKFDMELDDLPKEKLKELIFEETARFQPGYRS
Compound,effect on ERK-mediated Rsk-1 phosphorylation (in words) [3],IC50 (HeLa cells) [µM],other results
N=C(N)Nc1nc(C2COc3ccccc3O2)cs1 (stereo not drawn) [Compound 36],little effect,,effect on colony formation / cell proliferation (in words) [1]: subtle inhibition; also recorded: little effect; activity in ERK substrate phosphorylation assays (in words) [2]: little effect
COc1ccc(CN2CCNCC2)cc1 [Compound 67],significantly reduced,,effect on colony formation / cell proliferation (in words) [1]: little effect; ERK2 fluorescence quenching / binding (in words) (ERK2): did not show quenching
CN(C)CCNC(=O)c1ccc(-c2ccccc2)cc1 [Compound 68],appeared to enhance; also recorded: enhanced,,effect on colony formation / cell proliferation (in words) [1]: little effect
O=C(CCN1CCN(C/C=C/c2ccccc2)CC1)Nc1ccc(Cl)cc1 [Compound 81],,,inhibition of cell proliferation in SUM-159 (in words) [4]: inhibition of cell proliferation; IC50 [5]: ~15 µM; effect on colony formation / cell proliferation (in words) [1]: completely inhibited; ERK2 fluorescence quenching / binding (in words) (ERK2): quenching only occurs to a small extent at the higher concentrations; inhibition of cell proliferation in HT1080 (in words) [6]: inhibition of cell proliferation
C#CCOC(=O)CCCC(=O)Nc1ccc([N+](=O)[O-])cc1Cl [Compound 87],,> 100,
CCOC(=O)c1ccc(C=NO)[n+]([O-])c1 [Compound 88],,> 100,
NC(=N[N+](=O)[O-])N/N=C/c1ccc(-c2cccc([N+](=O)[O-])c2)o1 [Compound 89],most effective,,effect on ERK-mediated Elk-1 phosphorylation (in words) [7]: most effective
CCOC(=O)c1ccc(NC(=S)NCCN2CCOCC2)cc1 [Compound 90],,> 100,
CC(Oc1ccc(C=C2NC(=S)NC2=O)cc1)C(=O)O (stereo not drawn) [Compound 91],most effective,> 100,
Cc1ccc(-c2nc(-c3cccc([N+](=O)[O-])c3)no2)c(Cl)c1 [Compound 93],,5 to 10,"inhibition of colony formation / cancer cell proliferation (in words) (HeLa cells; compounds 86-98, colony formation assay (FIG. 7E)): most effective inhibitors; ERK2 fluorescence quenching / binding (in words) (ERK2): some quenching; effect on ERK-mediated Elk-1 phosphorylation (in words) [7]: most effective"
COc1cc(C=C2NC(=O)NC2=O)ccc1OCc1ccc(Br)cc1 [Compound 95],most effective,10 to 25,effect on ERK-mediated Elk-1 phosphorylation (in words) [7]: most effective
COc1ccc(C(=O)Nc2ccc(OCC(=O)O)cc2)cc1 [Compound 96],,> 100,
O=C(CN1CCSCC1)NN=Cc1ccc(Br)s1 [Compound 97],,> 100,
NC(=O)COc1ccc(C=C2C(=O)NC(=S)NC2=O)cc1 [Compound 98],,> 100,
